Patent US20130131161A1, “METHODS AND COMPOSITIONS FOR CARDIOVASCULAR DISEASES AND CONDITIONS” (priority 2009, published 2013)

System: Human umbilical vein endothelial cells (HUVECs)
Assay: eNOS activity analysis: NO, ONOO− and NO/ONOO− release from HUVECs of 50 genotyped donors in response to LA-419 (Example 2)
Type: cell-based
Method: Concurrent measurements of NO and ONOO^− were carried out with tandem electrochemical nanosensors combined into one working unit with a total diameter of 200-500 nm (FIG. 1). Their design was based on previously developed and well-characterized chemically modified carbon-fiber technology (Malinski and Taha, 1992; Lvovich and Scheeline, 1997). Each of the nanosensors was made by depositing a sensing material on the tip of a carbon fiber (length 4-5 μm, diameter 0.2-0.5 μm). The fibers were sealed with nonconductive epoxy and electrically connected to copper wires with conductive silver epoxy. A conductive film of polymeric nickel (II) tetrakis(3-methoxy-4-hydroxyphenyl)porphyrin for the NO-sensor and polymeric film of Mn (III) [2.2]paracyclophanylporphyrin was used for the ONOO^−-sensor.
A module of NO/ONOO^− nanosensors (diameter 1-2 μm) with a platinum wire (0.1 mm) counter electrode and saturated calomel reference electrode (SCE) were applied. Differential pulse voltammetry (DPV) and amperometry were performed with a computer-based Gamry VFP600 multichannel potentiostat. DPV was used to measure the basal NO and ONOO^− concentrations, and amperometry was used to measure changes in NO and ONOO^− concentrations from its basal level with time. The DPV current at the peak potential characteristic for NO oxidation (0.65 V) and ONOO^− reduction (−0.45 V) was directly proportional to the local concentrations of these compounds in the immediate vicinity of the sensor. Linear calibration curves (current vs. concentration) were constructed for each sensor from 10 nM to 3 μM before and after measurements with aliquots of NO and ONOO^− standard solutions, respectively. The detection limit of the sensors was 1.0 nM.
The quantification of each analyte (concentration in nM) was performed using a maximum current from amperograms and standard calibration curves. A reproducibility of measurements with nanosensors is relatively high (between 5-12%). […] The sensors were slowly raised 5±2 μm from the surface of a single endothelial cell. The eNOS agonist, calcium ionophore A23187 (CaI) as well as the different drugs were then added to the surrounding media at the cell surface with a nanoinjector that was also positioned by a computer controlled-micromanipulator.
This example describes the genotype-specific response of the three major eNOS variants to 1 μM and 5 μM concentrations of LA-419. The three major genetic polymorphisms studied were the Glu298Asp variant (E298D or 894G→T) in exon 7 of […], the −786T→C variant in the promoter region, and the intron 4 polymorphism (VNTR). All of these variants have possible effects on the cardiovascular system and endothelial dysfunction. For this study, human umbilical vein endothelial cells (HUVECs) from 50 donors between 18 and 32 years of age were used.
For the analysis several analysis techniques were employed. First, the effect of genotype on NO and ONOO^− release was explored within the different concentrations of LA-419 (control, 1 μM, 5 μM), calculated as the average peak release (nmols/L) of NO, ONOO^−, and NO/ONOO^−. The effect of genotype on the net increase in NO, ONOO^−, and NO/ONOO^− for LA-419 (1 μM and 5 μM) as compared to control was also measured. In addition, an analysis was done on the effect of genotype on the % change in NO, ONOO^−, and NO/ONOO^− production for LA-419 (1 μM and 5 μM), calculated as:
% Change=[(avg. LA-419−avg. control)/(avg. control)]*100
Finally, an evaluation was undertaken concerning the effect of genotype on the production of NO, ONOO^−, and NO/ONOO^− as the fold difference of control for LA-419 (1 μM and 5 μM), calculated as:
Fold Difference=(avg. LA-419)/(avg. control)
Within each calculation technique the results were compared for statistical significance using a non-parametric ANOVA Kruskal-Wallace test or a non-parametric Mann-Whitney U test. Statistical significance was set at a p-value <0.05 in a two-tailed distribution. […]

[1] = (LA-419 5 μM)/(control), T-786C C/C, n=4
[2] = (LA-419 5 μM)/(control), T-786C T/C & C/C, n=27
[3] = (LA-419 5 μM)/(control), T-786C T/C, n=23
[4] = (LA-419 5 μM)/(control), T-786C T/T & T/C, n=45
[5] = (LA-419 5 μM)/(control), T-786C T/T, n=22
[6] = Caucasian, (LA-419 1 μM)/(control), Combination of all G894T + T-786C genotypes but G/G + T/T, n=19
[7] = Caucasian, (LA-419 1 μM)/(control), G894T + T-786C G/G + T/C, n=3
[8] = Caucasian, (LA-419 1 μM)/(control), G894T + T-786C G/G + T/T, n=7
[9] = Caucasian, (LA-419 1 μM)/(control), G894T + T-786C G/T + T/C, n=10
[10] = Caucasian, (LA-419 1 μM)/(control), G894T + T-786C G/T + T/T, n=3
[11] = Caucasian, (LA-419 1 μM)/(control), G894T + T-786C T/T + T/C, n=2
[12] = Caucasian, (LA-419 1 μM)/(control), G894T G/G, n=10
[13] = Caucasian, (LA-419 1 μM)/(control), G894T G/T & T/T, n=16
[14] = Caucasian, (LA-419 1 μM)/(control), G894T G/T, n=13
[15] = Caucasian, (LA-419 1 μM)/(control), G894T T/T, n=3
[16] = Caucasian, (LA-419 1 μM)/(control), Intron 4 b/a & a/a, n=6
[17] = Caucasian, (LA-419 1 μM)/(control), Intron 4 b/a, n=5
[18] = Caucasian, (LA-419 1 μM)/(control), Intron 4 b/b, n=18
[19] = Caucasian, (LA-419 1 μM)/(control), T-786C T/C & C/C, n=16
[20] = Caucasian, (LA-419 1 μM)/(control), T-786C T/C, n=15
[21] = Caucasian, (LA-419 1 μM)/(control), T-786C T/T, n=10
[22] = Caucasian, (LA-419 5 μM)/(control), Combination of all G894T + T-786C genotypes but G/G + T/T, n=19
[23] = Caucasian, (LA-419 5 μM)/(control), G894T + T-786C G/G + T/C, n=3
[24] = Caucasian, (LA-419 5 μM)/(control), G894T + T-786C G/G + T/T, n=7
[25] = Caucasian, (LA-419 5 μM)/(control), G894T + T-786C G/T + T/C, n=10
[26] = Caucasian, (LA-419 5 μM)/(control), G894T + T-786C G/T + T/T, n=3
[27] = Caucasian, (LA-419 5 μM)/(control), G894T + T-786C T/T + T/C, n=2

With `CC(=O)SC1COC2C(O[N+](=O)[O-])COC12` (stereo not drawn) [LA-419, S-(6-Nitro-oxi-hexahydro-furo[3,2-b]furan-3-1-il)thioacetate] the “Fold difference NO (mean ± sd)” value [1] was 1.12 (0.06), the “Fold difference NO/ONOO− (mean ± sd)” value [1] was 1.42 (0.13) and the “Fold difference ONOO− (mean ± sd)” value [1] was 0.79 (0.08). The “Fold difference NO (mean ± sd)” value [2] was 1.13 (0.07), the “Fold difference NO/ONOO− (mean ± sd)” value [2] was 1.39 (0.13) and the “Fold difference ONOO− (mean ± sd)” value [2] was 0.82 (0.06). For the same molecule, the “Fold difference NO (mean ± sd)” value [3] was 1.14 (0.07), the “Fold difference NO/ONOO− (mean ± sd)” value [3] was 1.39 (0.14) and the “Fold difference ONOO− (mean ± sd)” value [3] was 0.82 (0.06). For the same molecule, the “Fold difference NO (mean ± sd)” value [4] was 1.15 (0.06), the “Fold difference NO/ONOO− (mean ± sd)” value [4] was 1.44 (0.16) and the “Fold difference ONOO− (mean ± sd)” value [4] was 0.81 (0.07). For the same molecule, the “Fold difference NO (mean ± sd)” value [5] was 1.16 (0.06), the “Fold difference NO/ONOO− (mean ± sd)” value [5] was 1.49 (0.18) and the “Fold difference ONOO− (mean ± sd)” value [5] was 0.79 (0.08). For the same molecule, the “Fold difference NO (mean ± sd)” value [6] was 1.20 (0.29), the “Fold difference NO/ONOO− (mean ± sd)” value [6] was 1.61 (0.77) and the “Fold difference ONOO− (mean ± sd)” value [6] was 0.81 (0.16). For the same molecule, the “Fold difference NO (mean ± sd)” value [7] was 1.13 (0.03), the “Fold difference NO/ONOO− (mean ± sd)” value [7] was 1.27 (0.04) and the “Fold difference ONOO− (mean ± sd)” value [7] was 0.89 (0.02). For the same molecule, the “Fold difference NO (mean ± sd)” value [8] was 1.25 (0.12), the “Fold difference NO/ONOO− (mean ± sd)” value [8] was 1.63 (0.72) and the “Fold difference ONOO− (mean ± sd)” value [8] was 0.84 (0.22). The “Fold difference NO (mean ± sd)” value [9] was 1.29 (0.37), the “Fold difference NO/ONOO− (mean ± sd)” value [9] was 1.75 (0.91) and the “Fold difference ONOO− (mean ± sd)” value [9] was 0.81 (0.16). For the same molecule, the “Fold difference NO (mean ± sd)” value [10] was 1.08 (0.03), the “Fold difference NO/ONOO− (mean ± sd)” value [10] was 1.21 (0.04) and the “Fold difference ONOO− (mean ± sd)” value [10] was 0.90 (0.06). The “Fold difference NO (mean ± sd)” value [11] was 1.11 (0.36), the “Fold difference NO/ONOO− (mean ± sd)” value [11] was 2.25 (1.17) and the “Fold difference ONOO− (mean ± sd)” value [11] was 0.52 (0.11). The “Fold difference NO (mean ± sd)” value [12] was 1.21 (0.12), the “Fold difference NO/ONOO− (mean ± sd)” value [12] was 1.52 (0.61) and the “Fold difference ONOO− (mean ± sd)” value [12] was 0.86 (0.18). For the same molecule, the “Fold difference NO (mean ± sd)” value [13] was 1.21 (0.32), the “Fold difference NO/ONOO− (mean ± sd)” value [13] was 1.68 (0.83) and the “Fold difference ONOO− (mean ± sd)” value [13] was 0.79 (0.17). The “Fold difference NO (mean ± sd)” value [14] was 1.24 (0.33), the “Fold difference NO/ONOO− (mean ± sd)” value [14] was 1.63 (0.82) and the “Fold difference ONOO− (mean ± sd)” value [14] was 0.83 (0.15). The “Fold difference NO (mean ± sd)” value [15] was 1.08 (0.26), the “Fold difference NO/ONOO− (mean ± sd)” value [15] was 1.90 (1.02) and the “Fold difference ONOO− (mean ± sd)” value [15] was 0.63 (0.19). For the same molecule, the “Fold difference NO (mean ± sd)” value [16] was 1.25 (0.33), the “Fold difference NO/ONOO− (mean ± sd)” value [16] was 1.52 (0.70) and the “Fold difference ONOO− (mean ± sd)” value [16] was 0.86 (0.10). The “Fold difference NO (mean ± sd)” value [17] was 1.28 (0.35), the “Fold difference NO/ONOO− (mean ± sd)” value [17] was 1.58 (0.77) and the “Fold difference ONOO− (mean ± sd)” value [17] was 0.85 (0.12). The “Fold difference NO (mean ± sd)” value [18] was 1.21 (0.25), the “Fold difference NO/ONOO− (mean ± sd)” value [18] was 1.69 (0.80) and the “Fold difference ONOO− (mean ± sd)” value [18] was 0.79 (0.20). The “Fold difference NO (mean ± sd)” value [19] was 1.22 (0.31), the “Fold difference NO/ONOO− (mean ± sd)” value [19] was 1.69 (0.82) and the “Fold difference ONOO− (mean ± sd)” value [19] was 0.79 (0.17). The “Fold difference NO (mean ± sd)” value [20] was 1.24 (0.32), the “Fold difference NO/ONOO− (mean ± sd)” value [20] was 1.72 (0.84) and the “Fold difference ONOO− (mean ± sd)” value [20] was 0.79 (0.17). For the same molecule, the “Fold difference NO (mean ± sd)” value [21] was 1.20 (0.13), the “Fold difference NO/ONOO− (mean ± sd)” value [21] was 1.50 (0.62) and the “Fold difference ONOO− (mean ± sd)” value [21] was 0.86 (0.18). The “Fold difference NO (mean ± sd)” value [22] was 1.13 (0.06), the “Fold difference NO/ONOO− (mean ± sd)” value [22] was 1.37 (0.10) and the “Fold difference ONOO− (mean ± sd)” value [22] was 0.83 (0.06). The “Fold difference NO (mean ± sd)” value [23] was 1.19 (0.02), the “Fold difference NO/ONOO− (mean ± sd)” value [23] was 1.47 (0.08) and the “Fold difference ONOO− (mean ± sd)” value [23] was 0.81 (0.03). The “Fold difference NO (mean ± sd)” value [24] was 1.19 (0.08), the “Fold difference NO/ONOO− (mean ± sd)” value [24] was 1.47 (0.14) and the “Fold difference ONOO− (mean ± sd)” value [24] was 0.81 (0.04). For the same molecule, the “Fold difference NO (mean ± sd)” value [25] was 1.11 (0.05), the “Fold difference NO/ONOO− (mean ± sd)” value [25] was 1.33 (0.06) and the “Fold difference ONOO− (mean ± sd)” value [25] was 0.84 (0.04). The “Fold difference NO (mean ± sd)” value [26] was 1.14 (0.06), the “Fold difference NO/ONOO− (mean ± sd)” value [26] was 1.39 (0.14) and the “Fold difference ONOO− (mean ± sd)” value [26] was 0.83 (0.11). The “Fold difference NO (mean ± sd)” value [27] was 1.12 (0.09), the “Fold difference NO/ONOO− (mean ± sd)” value [27] was 1.29 (0.01) and the “Fold difference ONOO− (mean ± sd)” value [27] was 0.87 (0.06). The “Fold difference NO (mean ± sd)” value (Caucasian, (LA-419 5 μM)/(control), G894T G/G, n=10) was 1.19 (0.07).
